These results are taken from ChEMBL document CHEMBL5226323, “Targeting Nuclear Receptors in Neurodegeneration and Neuroinflammation” (J Med Chem, 2021).

In data set [1] the target is T1, Nuclear receptor subfamily 2 group E member 1 (Homo sapiens, UniProt Q9Y466). Briefly: Inverse agonist activity at TLX (unknown origin).
Data set [2] has as its target T1, Nuclear receptor subfamily 2 group E member 1. The data set can be described thus: Inverse agonist activity at TLX (unknown origin) assessed as fold activation. Particulars: filed as inverse agonist.
The target of data set [3] is T2, Retinoic acid receptor RXR-alpha (Homo sapiens, UniProt P19793).
T2 sequence (P19793 whole entry): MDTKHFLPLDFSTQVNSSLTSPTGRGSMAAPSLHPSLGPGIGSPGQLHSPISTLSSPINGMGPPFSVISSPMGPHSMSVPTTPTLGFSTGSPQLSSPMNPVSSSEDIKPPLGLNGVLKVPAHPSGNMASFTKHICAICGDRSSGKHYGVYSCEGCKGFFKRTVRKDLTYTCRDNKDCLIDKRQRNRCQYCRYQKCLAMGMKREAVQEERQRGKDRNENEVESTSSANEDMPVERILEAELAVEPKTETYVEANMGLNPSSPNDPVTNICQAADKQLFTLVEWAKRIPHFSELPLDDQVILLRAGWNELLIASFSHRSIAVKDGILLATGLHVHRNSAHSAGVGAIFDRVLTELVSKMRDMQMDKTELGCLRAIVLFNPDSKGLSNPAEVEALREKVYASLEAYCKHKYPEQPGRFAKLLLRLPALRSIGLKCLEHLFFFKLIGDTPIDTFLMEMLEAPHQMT
The data set can be described thus: Antagonist activity at RXRalpha (unknown origin).

For data set [4], the target named is T3, Nuclear receptor subfamily 4immunitygroup A member 1 (Homo sapiens, UniProt P22736). The data set can be described thus: Binding affinity to Nur77 (unknown origin) by SPR assay. (Surface plasmon resonance follows binding to a sensor surface in real time, without labels.)
T3 sequence (P22736 whole entry): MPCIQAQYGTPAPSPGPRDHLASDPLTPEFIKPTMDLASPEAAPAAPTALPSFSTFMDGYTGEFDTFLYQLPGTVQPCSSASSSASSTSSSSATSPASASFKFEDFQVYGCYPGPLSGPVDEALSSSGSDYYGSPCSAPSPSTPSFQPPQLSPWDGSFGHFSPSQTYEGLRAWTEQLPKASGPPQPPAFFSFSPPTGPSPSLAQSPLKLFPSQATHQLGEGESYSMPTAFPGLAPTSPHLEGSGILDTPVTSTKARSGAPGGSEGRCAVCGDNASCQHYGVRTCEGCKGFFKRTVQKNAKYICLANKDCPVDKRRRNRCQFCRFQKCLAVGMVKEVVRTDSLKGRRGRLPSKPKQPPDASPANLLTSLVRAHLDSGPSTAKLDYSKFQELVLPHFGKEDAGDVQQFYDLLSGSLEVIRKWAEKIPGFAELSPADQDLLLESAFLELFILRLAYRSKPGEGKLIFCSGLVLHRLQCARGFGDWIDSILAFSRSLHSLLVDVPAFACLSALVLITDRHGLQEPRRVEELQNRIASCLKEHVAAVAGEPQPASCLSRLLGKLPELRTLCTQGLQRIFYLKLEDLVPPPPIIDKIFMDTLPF
For data set [5], the target named is T3, Nuclear receptor subfamily 4immunitygroup A member 1. The data set can be described thus: Agonist activity at full length Nur77 in Normal human bronchial epithelial cell assessed as fold increase of receptor transactivation at 10 uM. It counts as cell-based. Particulars: filed as agonist.
The target in data set [6] is T2, Retinoic acid receptor RXR-alpha. Briefly: Inhibition of RXRalpha (unknown origin).
The target of data set [7] is T4, Retinoic acid receptor RXR-beta (Homo sapiens, UniProt P28702).
T4 sequence (P28702 whole entry): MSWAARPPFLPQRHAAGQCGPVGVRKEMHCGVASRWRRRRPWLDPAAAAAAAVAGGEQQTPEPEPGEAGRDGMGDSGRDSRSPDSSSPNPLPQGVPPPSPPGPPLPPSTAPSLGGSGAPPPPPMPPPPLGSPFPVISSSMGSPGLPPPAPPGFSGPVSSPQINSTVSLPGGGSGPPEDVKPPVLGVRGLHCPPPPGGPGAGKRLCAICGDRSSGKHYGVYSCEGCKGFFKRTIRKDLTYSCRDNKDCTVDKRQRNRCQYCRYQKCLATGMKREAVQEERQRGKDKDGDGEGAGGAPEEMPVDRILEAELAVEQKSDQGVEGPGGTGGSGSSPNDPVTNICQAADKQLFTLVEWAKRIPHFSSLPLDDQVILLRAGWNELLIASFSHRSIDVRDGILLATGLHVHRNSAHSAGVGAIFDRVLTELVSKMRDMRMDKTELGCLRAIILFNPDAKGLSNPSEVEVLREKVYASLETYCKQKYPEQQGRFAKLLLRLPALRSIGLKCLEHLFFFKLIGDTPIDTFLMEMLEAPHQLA
Briefly: Inhibition of RXRbeta (unknown origin).

Data set [8] addresses T5, Retinoic acid receptor RXR-gamma (Homo sapiens, UniProt P48443).
T5 sequence (P48443 whole entry): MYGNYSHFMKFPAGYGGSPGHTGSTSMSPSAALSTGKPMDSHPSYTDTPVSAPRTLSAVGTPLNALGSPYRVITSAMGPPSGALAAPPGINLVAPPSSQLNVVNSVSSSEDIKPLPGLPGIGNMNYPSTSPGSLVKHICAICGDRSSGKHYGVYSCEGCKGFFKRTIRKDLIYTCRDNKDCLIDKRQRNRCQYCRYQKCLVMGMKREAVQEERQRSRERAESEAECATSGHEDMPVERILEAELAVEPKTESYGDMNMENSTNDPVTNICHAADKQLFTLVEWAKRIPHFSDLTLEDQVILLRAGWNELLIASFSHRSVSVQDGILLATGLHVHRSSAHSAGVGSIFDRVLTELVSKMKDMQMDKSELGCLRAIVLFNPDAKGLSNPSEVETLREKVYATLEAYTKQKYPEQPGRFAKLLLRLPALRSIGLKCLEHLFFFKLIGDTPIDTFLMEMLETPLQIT
Briefly: Inhibition of RXRgamma (unknown origin).

The nature of data set [9]: Inhibition of RXR (unknown origin).
Data set [10] has as its system Mus musculus. Briefly: Anti-alzheimer activity against APP/PS1 mouse assessed as decrease in A-beta levels in hippocampus at 100 mg/kg, po measured after 14 days by ELISA analysis relative to control. The following applies: time 14 day. Set-up: scale not given: the % may be the effect or the level left. The format is functional. A general note: In an ELISA, binding on a coated surface is turned into a signal by an enzyme label.

Data set [11] addresses T3, Nuclear receptor subfamily 4immunitygroup A member 1. The data set can be described thus: Inhibition of Gal4-fused Nur77 in HEK293T cells. The format is cell-based.
The target in data set [12] is T6, Nuclear receptor subfamily 4 group A member 2/Retinoic acid receptor RXR-alpha (Homo sapiens, UniProt P19793+P43354). Briefly: Inhibition of full-length Nurr1-RXRalpha in human SH-SY5Y cells. It counts as cell-based.
T6 sequence (P43354 whole entry, one chain of several): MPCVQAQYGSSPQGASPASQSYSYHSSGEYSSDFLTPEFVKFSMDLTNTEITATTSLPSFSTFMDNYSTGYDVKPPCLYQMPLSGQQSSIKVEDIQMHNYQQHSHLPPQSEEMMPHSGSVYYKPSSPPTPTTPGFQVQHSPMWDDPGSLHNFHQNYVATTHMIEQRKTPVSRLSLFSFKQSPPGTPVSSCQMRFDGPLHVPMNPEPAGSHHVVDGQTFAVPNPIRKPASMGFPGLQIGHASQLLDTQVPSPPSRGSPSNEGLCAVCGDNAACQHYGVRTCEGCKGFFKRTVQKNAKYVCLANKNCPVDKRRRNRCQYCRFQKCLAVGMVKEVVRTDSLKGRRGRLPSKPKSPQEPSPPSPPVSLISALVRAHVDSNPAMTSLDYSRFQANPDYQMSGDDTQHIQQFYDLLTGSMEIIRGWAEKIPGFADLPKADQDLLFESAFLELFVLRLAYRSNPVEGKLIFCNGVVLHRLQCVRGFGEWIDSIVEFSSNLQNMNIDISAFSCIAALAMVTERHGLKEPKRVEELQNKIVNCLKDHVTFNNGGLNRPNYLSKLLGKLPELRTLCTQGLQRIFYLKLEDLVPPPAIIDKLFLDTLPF
A short description of data set [13]: Half life in ip dosed mouse. The following applies: in vivo. It counts as ADME, organism-based.
Data set [14] can be described thus: Half life in ip dosed mouse brain. It counts as ADME, organism-based.
Data set [15] deals with T3, Nuclear receptor subfamily 4immunitygroup A member 1. Briefly: Inhibition of full length Nur77 in HEK293T cells at 50 uM relative to control. It counts as cell-based.
The target of data set [16] is Nuclear receptor subfamily 4 group A member 1 (Mus musculus) (UniProt P12813). The data set can be described thus: Inhibition of full length Nur77 in mouse MN9D cells at 50 uM relative to control. The format is cell-based.
Nuclear receptor subfamily 4 group A member 1 (Mus musculus), sequence (P12813 whole entry): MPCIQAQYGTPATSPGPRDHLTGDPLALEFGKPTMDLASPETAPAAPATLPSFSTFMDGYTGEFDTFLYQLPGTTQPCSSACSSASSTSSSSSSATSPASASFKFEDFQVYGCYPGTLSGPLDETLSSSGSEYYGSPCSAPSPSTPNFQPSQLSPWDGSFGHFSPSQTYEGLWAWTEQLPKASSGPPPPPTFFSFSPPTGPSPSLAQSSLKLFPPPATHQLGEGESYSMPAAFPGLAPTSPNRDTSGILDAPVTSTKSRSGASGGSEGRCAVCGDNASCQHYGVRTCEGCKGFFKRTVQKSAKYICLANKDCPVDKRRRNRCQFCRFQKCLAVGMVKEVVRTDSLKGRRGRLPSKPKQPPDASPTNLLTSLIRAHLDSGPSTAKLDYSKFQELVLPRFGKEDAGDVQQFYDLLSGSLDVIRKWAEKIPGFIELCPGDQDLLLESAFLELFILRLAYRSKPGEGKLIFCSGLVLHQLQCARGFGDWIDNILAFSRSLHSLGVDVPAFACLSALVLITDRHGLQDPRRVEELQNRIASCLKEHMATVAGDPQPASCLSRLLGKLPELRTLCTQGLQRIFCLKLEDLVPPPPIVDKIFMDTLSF
The target of data set [17] is T6, Nuclear receptor subfamily 4 group A member 2/Retinoic acid receptor RXR-alpha. The data set can be described thus: Inhibition of Nurr1-RXRalpha (unknown origin) by BRET assay. It counts as protein-complex assay. On the technique in general: Bioluminescence resonance energy transfer reports proximity on the nanometre scale.
Data set [18] concerns the target T2, Retinoic acid receptor RXR-alpha. The data set can be described thus: Inhibition of RXRalpha (unknown origin) by BRET assay.
For data set [19], the species on record is Homo sapiens. Briefly: Selectivity ratio of IC50 for Nurr1-RXRalpha (unknown origin) to IC50 for RXRalpha (unknown origin) by BRET assay.
Data set [20] is described as follows: Antagonist activity at NFkappaB in rat RAW264.7 cells.
For data set [21], the target named is T7, Retinoic acid receptor RXR-alpha (Homo sapiens) (UniProt P19793).
T7 sequence (whole entry): T2 sequence (P19793 whole entry)
Briefly: Agonist activity at RXRalpha (unknown origin) assessed as fold activation. The following applies: filed as agonist.

Data set [22] concerns the target T8, Retinoic acid receptor RXR-beta (Homo sapiens) (UniProt P28702).
T8 sequence (whole entry): T4 sequence (P28702 whole entry)
The data set can be described thus: Agonist activity at RXRbeta (unknown origin) assessed as fold activation. Particulars: filed as agonist.

Data set [23] addresses T9, Retinoic acid receptor RXR-gamma (Homo sapiens) (UniProt P48443).
T9 sequence (whole entry): T5 sequence (P48443 whole entry)
The data set can be described thus: Agonist activity at RXRgamma (unknown origin) assessed as fold activation. The following applies: filed as agonist.

T1 sequence (Q9Y466 whole entry): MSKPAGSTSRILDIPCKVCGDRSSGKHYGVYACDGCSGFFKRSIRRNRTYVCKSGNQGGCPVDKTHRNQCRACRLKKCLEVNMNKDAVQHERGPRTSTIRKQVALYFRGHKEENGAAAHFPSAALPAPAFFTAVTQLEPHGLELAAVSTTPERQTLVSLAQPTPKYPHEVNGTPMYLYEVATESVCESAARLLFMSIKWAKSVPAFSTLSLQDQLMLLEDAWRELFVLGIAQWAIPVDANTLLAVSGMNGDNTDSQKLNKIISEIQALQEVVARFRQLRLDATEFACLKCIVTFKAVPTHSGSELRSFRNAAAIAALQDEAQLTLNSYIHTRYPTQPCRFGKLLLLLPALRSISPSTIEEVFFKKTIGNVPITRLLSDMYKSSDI

Usually EC50 stands for the concentration needed to bring the measured effect to its halfway point. `CC1=C(/C=C/C(C)=C/C=C/C(C)=C/C=O)C(C)(C)CCC1` [RETINAL]: in [1], the EC50 stood at 200 nM. For the same compound, in data set [2], the fold change (FC) was 4.
Consider `CCCCCOc1cc2c(cc1-c1cc(CCC(=O)O)ccc1O)C(C)(C)CCC2(C)C`, for which, in [3], the midpoint of the response, the EC50, lay at 240 nM.
For orientation: Kd means the free concentration of one partner at which half of the binding sites on the other are occupied at equilibrium, for simple one-to-one binding. In data set [4], `CCCCC[C@H](O)/C=C/[C@H]1C=CC(=O)[C@@H]1C/C=C\CCCC(=O)O` [PROSTAGLANDIN A2] yielded a Kd of 2050 nM. Moreover, the fold change (FC) in [5] amounted to 15.
As for `CCN(c1ccc(C(=O)O)cc1)c1ccc(C(C)C)c(OC(C)C)c1`, the EC50 was 32 nM in [6], 36 nM in data set [7] and 376 nM in data set [8].
In data set [1], `O=C(O)c1ccc(-c2ccc3cc(O)c(C45CC6CC(CC(C6)C4)C5)cc3c2)cc1` yielded an EC50 of 200 nM.
Compound `Cc1cc2c(cc1C1(c3ccc(C(=O)O)cn3)CC1)C(C)(C)CCC2(C)C` had an EC50 in data set [9] of 3 nM.
Regarding `CCN(c1ccc(C(=O)O)cc1)c1ccc(C(C)C)c(OCC(C)C)c1`, the EC50 in [6] is 0.58 nM; in [7], 23 nM; in data set [8], 3 nM.
Regarding `C=C(c1ccc(C(=O)O)cc1)c1cc2c(cc1C)C(C)(C)CCC2(C)C` [BEXAROTENE], the Activity in data set [10] is on record as 75%.
`CC1(C)CC=C(c2ccccc2)c2cc(/C=C/c3ccc(C(=O)O)cc3)ccc21` showed an EC50 in data set [1] of 200 nM. In addition, in [2], the fold change (FC) was found to be 5.
By half-life is commonly meant the time in which the quantity being followed falls by half. In the case of `Cc1ccc(Cl)c(Nc2ccccc2C(=O)O)c1Cl` [MECLOFENAMIC ACID], the EC50 stood at 4700 nM in data set [11] and 900 nM in [12]. In addition, the half-life in [13] and in data set [14] was 1.5 h each time.
Broadly, the inhibition is the change of the read-out against control, counted positive when it falls. Regarding `CC/C=C\C/C=C\C/C=C\C/C=C\C/C=C\C/C=C\CCC(=O)O`, the inhibition in [15] and in [16] was 25% each time.
The term pEC50 denotes the EC50 on a negative log10 scale, so that one unit is a factor of ten. For `CC(C)c1cccc(-c2cc(/C=C/C(=O)O)ccc2O)c1`, the EC50 in data set [17] is 0.794 nM. In addition, the inhibition in data set [17] (concentration not given here) amounted to 129%. Also, in data set [18], the negative-log EC50 (pEC50) is recorded as 7.7. Besides, the Ratio IC50 in data set [19] was 25.
One may read the IC50 as the concentration needed to halve the response being measured. In turn, `CCCCCCCCC(=O)c1c(O)cc(O)cc1CC(=O)OCCCCC` returned an IC50 in data set [20] of 1600 nM.
Consider `CC1=C2[C@H](/C=C(\C)C(=O)O)CC[C@@H](C)[C@H]2CC1`, for which the results for the fold change (FC) in [21], in [22] and in [23] were 9, 69 and 4, respectively.
